Where a name gives a salt, the structure may show the parent alone. Read-outs that look alike come from different tables or passages of the source.
Assays:
[1] = target: T1, canine heart phosphodiesterase PDE III (Canis lupus familiaris, UniProt A0A8I3NYE0); experiment: Inhibition of Phosphodiesterase Type III (PDE III); assay type: biochemical; conditions: 10 min at 37° C., pH 7.1
T1 construct: canine heart phosphodiesterase PDE III; from tissue; host or cells: canine heart
T1 sequence (A0A8I3NYE0 1-1135): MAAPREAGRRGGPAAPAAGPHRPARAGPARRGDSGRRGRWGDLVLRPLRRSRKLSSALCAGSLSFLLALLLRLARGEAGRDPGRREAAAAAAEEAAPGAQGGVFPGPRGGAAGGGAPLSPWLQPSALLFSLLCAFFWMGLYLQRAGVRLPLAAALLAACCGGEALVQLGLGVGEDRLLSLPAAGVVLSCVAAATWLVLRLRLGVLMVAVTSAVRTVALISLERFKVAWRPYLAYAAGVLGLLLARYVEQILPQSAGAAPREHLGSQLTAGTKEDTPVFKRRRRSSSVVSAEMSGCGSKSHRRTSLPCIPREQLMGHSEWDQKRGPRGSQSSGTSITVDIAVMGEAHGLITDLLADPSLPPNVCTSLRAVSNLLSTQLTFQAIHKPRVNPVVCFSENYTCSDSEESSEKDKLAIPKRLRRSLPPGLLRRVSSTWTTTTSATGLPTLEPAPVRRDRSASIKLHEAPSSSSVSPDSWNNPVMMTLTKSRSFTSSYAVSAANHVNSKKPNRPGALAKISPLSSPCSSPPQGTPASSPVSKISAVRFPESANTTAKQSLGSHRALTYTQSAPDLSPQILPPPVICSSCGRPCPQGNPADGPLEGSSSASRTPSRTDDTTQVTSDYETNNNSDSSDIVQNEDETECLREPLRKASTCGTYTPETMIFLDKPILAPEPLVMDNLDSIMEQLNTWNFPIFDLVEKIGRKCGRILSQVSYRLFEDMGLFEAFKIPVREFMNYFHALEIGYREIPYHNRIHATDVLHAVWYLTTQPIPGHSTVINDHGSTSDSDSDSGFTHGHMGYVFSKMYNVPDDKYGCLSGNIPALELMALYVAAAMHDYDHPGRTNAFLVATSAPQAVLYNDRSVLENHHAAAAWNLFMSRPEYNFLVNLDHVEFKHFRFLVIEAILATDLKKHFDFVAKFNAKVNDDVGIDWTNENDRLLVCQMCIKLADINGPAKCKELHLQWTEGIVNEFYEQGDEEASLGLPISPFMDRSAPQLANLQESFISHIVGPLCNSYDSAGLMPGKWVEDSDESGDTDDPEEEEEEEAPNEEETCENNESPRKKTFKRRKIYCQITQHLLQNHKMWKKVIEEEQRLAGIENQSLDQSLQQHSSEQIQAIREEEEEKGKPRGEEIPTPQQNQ
Protocol: The positive inotropic and lusitropic effect of the instant compounds was assessed by an in vitro assay system to detect inhibiting effect on the phosphodiesterase type III and in an in vivo experiment in closed-chest anesthetized dogs by monitoring cardiac and haemodynamic effects of an intravenous bolus injection of the instant compounds. […] Inhibition of Phosphodiesterase Type III (PDE III) […] For every preparation,time- and concentration-dependent changes in cyclic nucleotide hydrolysis were measured. […] The enzymatic activity was started by addition of substrate and stopped 10 min later after the tubes were transferred to a waterbath at 100° C. for 40 sec. After the tubes had been cooled to room temperature, alkaline phosphatase (0.25 g/ml) was added and the mixture was left at 37° C. for 20 min. The mixture was subsequently applied to a 1-ml DEAE-Sephadex A-25 column and washed twice with 3 ml of 20 mM Tris-HCl at pH 7.4. The ^3 H-labeled reaction products in the eluate were quantified by liquid scintillation counting. The inhibiting effect of the present compounds on canine heart phosphodiesterase PDE III was measured at different concentrations of the instant compounds. The IC50 values were calculated graphically from the thus obtained inhibition values.

[2] = test system: Beagle dogs; experiment: Positive inotropy and lusitropy, blood pressure and heart rate in anaesthetized closed-chest dogs; assay type: in vivo, Beagle dog; conditions: Canis lupus familiaris, iv, 5 min, 5 min after i.v. administration, n = 3, relative to premedication values
Protocol: The positive inotropic and lusitropic effect of the instant compounds was assessed by an in vitro assay system to detect inhibiting effect on the phosphodiesterase type III and in an in vivo experiment in closed-chest anesthetized dogs by monitoring cardiac and haemodynamic effects of an intravenous bolus injection of the instant compounds.
Positive Inotropy and Lusitropy, Blood Pressure and Heart Rate in Dogs
The test compound was dissolved in an aqueous glucose solution in a concentration of 1 mg.ml^-1. The experiments were performed on 3 Beagle dogs of either sex and varying age, ranging in body weight from 11 to 18 kg (median 13 kg). The animals were intravenously anaesthetized with a mixture of 0.015 mg.kg^-1 scopolamine and 0.05 mg.kg^-1 lofentanil. The animals were intubated with a cuffed endotracheal tube. Intermittent positive pressure ventilation was performed with a mixture of pressurized air and oxygen (60/40), using a volume-controlled ventilator (Siemens Elema). In the control period the CO2 concentration in the expired air (ET CO2), as determined with a capnograph (Gould Godart), was kept at 5 vol % by adjustment of the respiratory volume (resp. rate=20 breaths.min^-1). A continuous intravenous infusion of 0.5 mg.kg^-1.h^-1 of etomidate was started immediately after induction. Body temperature was monitored with a thermistor positioned in the pulmonary artery. To prevent blood clotting heparin, 1000 IU.kg^-1i.v., was administered.
The electrocardiogram (ECG) was derived from limb leads (standard lead 2). Left ventricular (LVP) and ascending aortic blood pressure (AoP) were measured by retrograde catheterisation via the femoral arteries with high fidelity cathetertip micromanometers (Honeywell). The other femoral vein was cannulated for injection of saline at room temperature into the right atrium and for injection of the test compound. Peak ascending aortic blood flow velocity was measured through the fight carotid artery with an electomagnetic catheter-tip probe connected to a square wave electomagnetic flow meter (Janssen Scientific Instruments). The following variables--inter alia--were calculated on-line, usually at 1 rain intervals: heart rate (HR), diastolic (AoPd) aortic blood pressure, left ventricular end-diastolic pressure (LVEDP), the maximum positive and maximum negative rate of change of isovolumic LVP (LV dp/dtmax and min, respectively), the maximum positive first derivative divided by the actually developed pressure in the left ventricle (LV dp/dtmax /Pd). The time constant (T) of relaxation was measured with the use of an exponential analysis that also estimated the asymptote. After a stabilization period, the animals were treated by intravenous bolus injection of the test compound at 30 min. interval in cumulative doses of 0.0005, 0.001, 0.004, 0.016, 0.064, 0.125 and 0.25 mg/kg.

[3] = read-out: Calculated dose producing a 15% reduction in diastolic aortic blood pressure (AoPD)
[4] = read-out: Calculated dose producing a 15% reduction of total systemic vascular resistance (TSR)
[5] = read-out: Calculated dose producing a 30% increase in cardiac contractility (LV dp/dt max)
[6] = read-out: Calculated dose producing a 30% increase in heart rate (HR)

IC50 [1] [nM]	SMILES	ED15 [2, 3] [mg/kg]	ED15 [2, 4] [mg/kg]	ED30 [2, 5] [mg/kg]	ED30 [2, 6] [mg/kg]
62	CCOC(=O)CCCCOc1ccc2nc3c(cc2c1)CC(=O)N3 [Compound 2, ethyl 5-[(2,3-dihydro-2-oxo-1H-pyrrolo[2,3-b]quinolin-6-yl]oxy]pentanoate]				
330	O=C(O)CCCOc1ccc2nc3c(cc2c1)CC(=O)N3 [Compound 3, 4-[(2,3-dihydro-2-oxo-1H-pyrrolo[2,3-b]quinolin-6-yl)oxy]butanoic acid]				
2.4	O=C1Cc2cc3cc(OCCCCC(=O)N4CCN(CC5CCCCC5)CC4)ccc3nc2N1 [Compound 6]				
58	O=C1Cc2cc3cc(OCCCCC(=O)NC4CCN(Cc5ccccc5)CC4)ccc3nc2N1 [Compound 7]				
300	CN1CCC(N(C)C(=O)CCCOc2ccc3nc4c(cc3c2)CC(=O)N4)CC1 [Compound 8, 4-[(2,3-dihydro-2-oxo-1H-pyrrolo[2,3-b]quinolin-6-yl)oxy]-N-methyl-N-(1-methyl-4-piperidinyl)butanamide]				
1.8	Cl.O=C1Cc2cc3cc(OCCCCC(=O)N4CCN(CC5CCCCC5)CC4)ccc3nc2N1 [Compound 15, 1-(cyclohexylmethyl)-4-[5-[(2,3-dihydro-2-oxo-1H-pyrrolo[2,3-b]-quinolin-6-yl)oxy]-1-oxopentyl]piperazine monohydrochloride]	0.015	0.003	0.002	0.028

Second part, the compound before the results:

SMILES	IC50 [1] [nM]	ED15 [2, 3] [mg/kg]	ED15 [2, 4] [mg/kg]	ED30 [2, 5] [mg/kg]	ED30 [2, 6] [mg/kg]
CCOC(=O)CCCOc1ccc2nc3c(cc2c1)CC(=O)N3 [Compound 1, ethyl 4-[(2,3-dihydro-2-oxo-1H-pyrrolo[2,3-b]quinolin-6-yl]oxy]butanoate]	290				
O=C1Cc2cc3cc(OCCCC(=O)N4CCN(CC5CCCCC5)CC4)ccc3nc2N1 [Compound 5, 1-(cyclohexylmethyl)-4-[4-[(2,3-dihydro-2-oxo-1H-pyrrolo[2,3-b]quinolin-6-yl)oxy]-1-oxobutyl]piperazine]	18	> 0.25	0.079	0.008	0.033
O=C1Cc2cc3cc(OCCCC(=O)N4CCN(CC5CCCCC5)CC4)ccc3nc2N1 [Compound 16, 1-(cyclohexylmethyl)-4-[4-[(2,3-dihydro-2-oxo-1H-pyrrolo[2,3-b]quinolin-6-yl)oxy]-1-oxobutyl]piperazine dihydrochloride ethanolate(1:1)]	27				
CN(C(=O)CCCOc1ccc2nc3c(cc2c1)CC(=O)N3)C1CCCCC1 [Compound 17, N-cyclohexyl-4-[(2,3-dihydro-2-oxo-1H-pyrrolo[2,3-b]quinolin-6-yl)oxy]-N-methylbutanamide hemihydrate]	7.6				

From patent US5602134A, “Positive inotropic and lusitropic pyrroloquinolinone derivatives” (Janssen Pharmaceutica N.V., priority 1993, dated 1997)
